Data reported in ChEMBL document CHEMBL1201862, “PubChem BioAssay data set” (2004).
Calls of active or inactive are those of the source.

How the values were obtained:
[1] = target: Sphingosine 1-phosphate receptor 4 (Homo sapiens, UniProt O95977); assay: Fluorescence dose response cell-based high throughput screening assay for agonists of the Sphingosine 1-Phosphate Receptor 4 (S1P4). [Related pubchem assays: 1509 (Primary screen.), 1523 (Confirmation screen in triplicates.)]; assay type: functional
[2] = target: Sphingosine 1-phosphate receptor 1 (Homo sapiens, UniProt P21453); assay: Fluorescence-based counterscreen assay for S1P4 agonists: Cell-based dose response high throughput screening assay to identify agonists of the Sphingosine 1-Phosphate Receptor 1 (S1P1). [Related pubchem assays (depositor defined):AID1509, AID1523, AID1801, AID463107, AID463118, AID463119, AID463122, AID463123, AID463129, AID463225, AID504400, AID504460]; assay type: functional
[3] = target: T1, Fatty acid synthase (Homo sapiens, UniProt P49327); assay: inhibition of human FAS-TE enzyme activity – biochemical, endpoint fluorescence intensity, uHTS hits, dose response (AID 624327); assay type: functional;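 also: fluorescence from hydrolysis of an O-methyl fluorescein acyl ester substrate by the enzyme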
[4] = target: Endoplasmic reticulum aminopeptidase 1 (Homo sapiens, UniProt Q9NZ08); assay: inhibition of human ERAP1 enzyme activity – biochemical, cherry-pick, set 2, plate reader, dose response (AID 743314)
[5] = target: Sphingosine 1-phosphate receptor 2 (Homo sapiens, UniProt O95136); assay: Dose Response Cell Based Assay for Agonists of the S1P2 Receptor. [Related pubchem assays: 729, 736, 843 ]; assay type: functional
[6] = target: T1, Fatty acid synthase; assay: inhibition of human FAS-TE enzyme activity – biochemical, kinetic fluorescence intensity, dose response (AID 624326); assay type: functional;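 also: rate of fluorescence rise from hydrolysis of a fluorogenic O-methyl fluorescein ester substrate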
[7] = target: T2, Tyrosine-protein phosphatase non-receptor type 22 (Homo sapiens, UniProt Q9Y2R2); assay type: functional
T2 sequence (Q9Y2R2 whole entry): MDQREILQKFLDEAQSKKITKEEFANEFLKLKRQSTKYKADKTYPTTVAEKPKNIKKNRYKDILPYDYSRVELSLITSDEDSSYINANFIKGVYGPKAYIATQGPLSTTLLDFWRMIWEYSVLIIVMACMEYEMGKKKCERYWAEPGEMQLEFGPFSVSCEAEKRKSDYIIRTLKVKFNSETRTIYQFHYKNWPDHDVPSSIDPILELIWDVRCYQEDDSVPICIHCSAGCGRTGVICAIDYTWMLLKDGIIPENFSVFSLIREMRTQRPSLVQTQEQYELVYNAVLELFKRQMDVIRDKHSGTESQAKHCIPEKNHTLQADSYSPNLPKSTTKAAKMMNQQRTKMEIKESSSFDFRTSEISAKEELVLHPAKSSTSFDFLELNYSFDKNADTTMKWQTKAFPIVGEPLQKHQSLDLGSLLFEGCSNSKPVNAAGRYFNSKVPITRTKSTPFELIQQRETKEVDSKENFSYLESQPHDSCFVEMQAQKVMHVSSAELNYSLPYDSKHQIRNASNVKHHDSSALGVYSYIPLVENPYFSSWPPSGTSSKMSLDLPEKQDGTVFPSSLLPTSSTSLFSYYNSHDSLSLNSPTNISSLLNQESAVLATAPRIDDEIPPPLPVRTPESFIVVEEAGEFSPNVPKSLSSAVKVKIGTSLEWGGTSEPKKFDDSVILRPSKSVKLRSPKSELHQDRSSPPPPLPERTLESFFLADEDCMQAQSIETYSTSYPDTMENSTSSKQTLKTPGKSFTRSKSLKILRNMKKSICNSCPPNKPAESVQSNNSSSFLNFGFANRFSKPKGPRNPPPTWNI

[8] = target: T3, Tyrosine-protein phosphatase non-receptor type 7 (Homo sapiens, UniProt P35236); assay type: functional
T3 sequence (P35236 whole entry): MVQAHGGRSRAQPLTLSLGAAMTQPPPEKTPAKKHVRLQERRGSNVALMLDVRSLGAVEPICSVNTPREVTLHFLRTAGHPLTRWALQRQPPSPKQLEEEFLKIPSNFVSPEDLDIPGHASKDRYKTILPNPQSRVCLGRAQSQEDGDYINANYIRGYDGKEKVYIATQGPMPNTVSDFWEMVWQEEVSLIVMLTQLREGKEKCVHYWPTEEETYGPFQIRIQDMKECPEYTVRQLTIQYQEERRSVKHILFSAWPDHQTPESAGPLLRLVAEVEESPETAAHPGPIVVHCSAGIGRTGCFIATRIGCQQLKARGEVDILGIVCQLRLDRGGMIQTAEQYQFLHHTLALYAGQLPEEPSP

[9] = target: T2, Tyrosine-protein phosphatase non-receptor type 22; assay type: functional; remark: listed apart in the source
[10] = target: Voltage-dependent T-type calcium channel subunit alpha-1H (Homo sapiens, UniProt O95180); assay: inhibition of CACNA1H calcium flux – cell-based, SynthLib3 library, HEK293 Cav3.2, fluorescence (AID 493041); assay type: functional
[11] = HEK-293T viability loss after treatment – luminescence, T-cell screen hits, cytotoxicity control for TCR NF-kB inhibitor project, dose response (AID 489026); assay type: functional, cell-based;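 also: cells exposed to compound about 14 hours before the viability readout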
[12] = target: Intestinal-type alkaline phosphatase (Mus musculus, UniProt P24822); assay: mouse intestinal alkaline phosphatase activators, dose response, biochemical, luminescence, uHTS hits (AID 488783); assay type: functional
[13] = target: T4, Apoptotic protease-activating factor 1 (Homo sapiens, UniProt O14727); assay type: functional
T4 sequence (O14727 whole entry): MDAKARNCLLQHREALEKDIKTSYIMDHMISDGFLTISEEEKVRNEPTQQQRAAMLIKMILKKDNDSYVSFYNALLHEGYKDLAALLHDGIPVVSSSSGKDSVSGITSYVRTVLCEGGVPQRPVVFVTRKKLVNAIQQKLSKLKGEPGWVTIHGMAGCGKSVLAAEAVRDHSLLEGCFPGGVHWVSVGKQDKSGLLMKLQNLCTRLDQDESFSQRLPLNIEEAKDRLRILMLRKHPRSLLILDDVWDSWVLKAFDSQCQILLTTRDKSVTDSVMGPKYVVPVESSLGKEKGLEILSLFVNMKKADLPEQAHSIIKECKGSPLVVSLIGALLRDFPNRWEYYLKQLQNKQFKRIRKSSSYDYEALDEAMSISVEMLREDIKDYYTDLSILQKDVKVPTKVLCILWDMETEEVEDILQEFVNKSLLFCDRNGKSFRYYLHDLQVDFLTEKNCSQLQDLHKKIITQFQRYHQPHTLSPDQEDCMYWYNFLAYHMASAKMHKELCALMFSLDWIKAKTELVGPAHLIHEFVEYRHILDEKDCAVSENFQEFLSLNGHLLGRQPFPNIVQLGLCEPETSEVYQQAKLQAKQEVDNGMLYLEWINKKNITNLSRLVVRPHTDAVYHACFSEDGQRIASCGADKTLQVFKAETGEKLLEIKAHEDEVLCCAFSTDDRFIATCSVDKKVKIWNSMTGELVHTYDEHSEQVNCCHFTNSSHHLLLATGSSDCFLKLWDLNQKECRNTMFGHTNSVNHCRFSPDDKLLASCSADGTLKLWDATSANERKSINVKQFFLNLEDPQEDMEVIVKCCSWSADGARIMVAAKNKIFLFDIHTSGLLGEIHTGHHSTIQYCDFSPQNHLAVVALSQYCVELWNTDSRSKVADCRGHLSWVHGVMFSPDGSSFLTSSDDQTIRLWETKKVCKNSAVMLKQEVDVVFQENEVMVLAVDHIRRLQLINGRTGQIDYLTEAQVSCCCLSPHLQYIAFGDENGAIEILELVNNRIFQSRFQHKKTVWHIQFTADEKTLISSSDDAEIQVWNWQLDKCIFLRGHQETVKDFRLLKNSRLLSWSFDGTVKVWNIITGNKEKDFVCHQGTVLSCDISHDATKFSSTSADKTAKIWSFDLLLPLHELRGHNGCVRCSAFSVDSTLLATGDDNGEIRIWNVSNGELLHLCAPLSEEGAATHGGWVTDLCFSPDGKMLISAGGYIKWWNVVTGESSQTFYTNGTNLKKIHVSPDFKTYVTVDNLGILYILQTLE

[14] = target: T5, Alkaline phosphatase, tissue-nonspecific isozyme (Homo sapiens, UniProt P05186); assay: activation of tissue-nonspecific alkaline phosphatase – biochemical, TNAP isozyme, mouse IAP uHTS hits, selectivity assay for mouse IAP activator project, dose response (AID 488880); assay type: functional
T5 sequence (P05186 whole entry): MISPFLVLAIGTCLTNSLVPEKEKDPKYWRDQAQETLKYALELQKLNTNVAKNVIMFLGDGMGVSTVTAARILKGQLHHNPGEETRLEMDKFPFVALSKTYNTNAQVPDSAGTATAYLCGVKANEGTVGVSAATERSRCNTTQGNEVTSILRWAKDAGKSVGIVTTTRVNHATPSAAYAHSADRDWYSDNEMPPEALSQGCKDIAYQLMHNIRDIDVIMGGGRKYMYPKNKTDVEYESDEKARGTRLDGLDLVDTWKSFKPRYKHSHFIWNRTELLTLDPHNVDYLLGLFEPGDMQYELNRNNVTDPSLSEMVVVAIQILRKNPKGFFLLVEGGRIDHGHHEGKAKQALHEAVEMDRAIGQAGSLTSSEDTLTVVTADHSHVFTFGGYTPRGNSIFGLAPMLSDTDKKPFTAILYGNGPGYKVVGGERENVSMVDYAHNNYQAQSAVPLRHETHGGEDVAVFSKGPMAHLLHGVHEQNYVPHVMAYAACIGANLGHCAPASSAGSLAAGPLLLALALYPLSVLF

[15] = target: Intestinal-type alkaline phosphatase (Homo sapiens, UniProt P09923); assay: activation of human intestinal alkaline phosphatase – biochemical, dose response (AID 488873); assay type: functional

T1 sequence (P49327 whole entry): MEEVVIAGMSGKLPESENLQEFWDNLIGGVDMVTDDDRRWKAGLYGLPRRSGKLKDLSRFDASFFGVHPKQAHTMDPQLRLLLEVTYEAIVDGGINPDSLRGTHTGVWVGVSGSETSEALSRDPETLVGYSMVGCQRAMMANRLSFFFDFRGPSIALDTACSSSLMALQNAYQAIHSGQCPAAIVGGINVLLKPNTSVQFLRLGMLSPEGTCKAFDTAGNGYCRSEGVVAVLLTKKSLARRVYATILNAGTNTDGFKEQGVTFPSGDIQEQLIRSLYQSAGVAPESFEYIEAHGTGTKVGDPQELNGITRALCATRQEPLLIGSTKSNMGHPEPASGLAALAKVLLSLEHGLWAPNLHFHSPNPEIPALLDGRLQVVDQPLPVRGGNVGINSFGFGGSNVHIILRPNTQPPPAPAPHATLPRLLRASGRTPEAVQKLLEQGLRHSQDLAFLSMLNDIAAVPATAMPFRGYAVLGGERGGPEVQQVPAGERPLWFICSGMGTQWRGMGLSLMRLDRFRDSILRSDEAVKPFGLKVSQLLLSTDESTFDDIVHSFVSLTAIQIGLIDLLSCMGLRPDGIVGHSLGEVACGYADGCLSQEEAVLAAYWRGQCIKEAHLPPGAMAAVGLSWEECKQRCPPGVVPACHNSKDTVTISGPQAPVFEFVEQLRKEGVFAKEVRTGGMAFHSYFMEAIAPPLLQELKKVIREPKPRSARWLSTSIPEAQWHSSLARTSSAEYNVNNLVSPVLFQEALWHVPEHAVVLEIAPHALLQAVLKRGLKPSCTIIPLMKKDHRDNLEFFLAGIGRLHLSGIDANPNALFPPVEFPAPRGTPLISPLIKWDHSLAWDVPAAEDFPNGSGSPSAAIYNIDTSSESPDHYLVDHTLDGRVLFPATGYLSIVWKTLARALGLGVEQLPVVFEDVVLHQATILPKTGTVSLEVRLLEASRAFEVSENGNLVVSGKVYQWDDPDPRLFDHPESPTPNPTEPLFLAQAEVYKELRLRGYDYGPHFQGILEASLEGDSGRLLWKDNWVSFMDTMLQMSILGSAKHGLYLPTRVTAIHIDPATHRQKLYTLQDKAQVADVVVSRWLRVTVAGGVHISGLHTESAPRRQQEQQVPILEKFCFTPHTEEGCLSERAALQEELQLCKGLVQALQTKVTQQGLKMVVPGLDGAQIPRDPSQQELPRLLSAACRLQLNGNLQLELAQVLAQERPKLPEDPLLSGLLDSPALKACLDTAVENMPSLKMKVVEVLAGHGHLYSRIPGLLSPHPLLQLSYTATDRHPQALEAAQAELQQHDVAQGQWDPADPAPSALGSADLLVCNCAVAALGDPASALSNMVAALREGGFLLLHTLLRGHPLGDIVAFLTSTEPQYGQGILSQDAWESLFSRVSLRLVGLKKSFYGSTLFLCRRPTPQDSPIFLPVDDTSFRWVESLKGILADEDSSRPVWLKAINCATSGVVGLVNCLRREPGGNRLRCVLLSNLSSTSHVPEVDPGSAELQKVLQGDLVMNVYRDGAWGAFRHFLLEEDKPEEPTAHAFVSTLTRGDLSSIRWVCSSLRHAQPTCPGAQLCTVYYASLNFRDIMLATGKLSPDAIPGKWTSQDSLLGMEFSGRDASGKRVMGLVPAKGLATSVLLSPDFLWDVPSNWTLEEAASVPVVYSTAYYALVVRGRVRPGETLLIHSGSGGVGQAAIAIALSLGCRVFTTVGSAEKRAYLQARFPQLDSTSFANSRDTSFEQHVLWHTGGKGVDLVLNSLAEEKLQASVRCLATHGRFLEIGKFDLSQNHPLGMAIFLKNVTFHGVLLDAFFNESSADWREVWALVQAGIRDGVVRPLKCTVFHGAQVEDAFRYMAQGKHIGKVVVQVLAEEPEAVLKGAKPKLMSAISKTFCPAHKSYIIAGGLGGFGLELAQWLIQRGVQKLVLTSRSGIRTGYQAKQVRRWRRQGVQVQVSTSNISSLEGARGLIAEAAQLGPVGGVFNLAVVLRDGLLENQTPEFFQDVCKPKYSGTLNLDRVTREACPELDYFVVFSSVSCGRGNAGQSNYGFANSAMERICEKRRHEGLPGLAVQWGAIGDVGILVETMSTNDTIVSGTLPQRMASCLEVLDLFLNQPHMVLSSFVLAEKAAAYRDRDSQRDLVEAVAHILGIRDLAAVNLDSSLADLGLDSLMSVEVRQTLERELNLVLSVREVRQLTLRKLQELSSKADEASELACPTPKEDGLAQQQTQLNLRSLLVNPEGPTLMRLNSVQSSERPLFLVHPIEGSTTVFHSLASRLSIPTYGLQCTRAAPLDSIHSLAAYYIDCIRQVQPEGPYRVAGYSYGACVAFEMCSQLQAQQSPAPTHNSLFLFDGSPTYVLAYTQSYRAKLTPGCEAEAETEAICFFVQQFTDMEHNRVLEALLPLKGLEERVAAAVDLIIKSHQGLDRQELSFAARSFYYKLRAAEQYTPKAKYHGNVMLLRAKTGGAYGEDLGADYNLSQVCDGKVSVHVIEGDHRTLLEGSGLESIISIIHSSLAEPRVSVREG
Sequence of Voltage-dependent T-type calcium channel subunit alpha-1H (O95180 whole entry): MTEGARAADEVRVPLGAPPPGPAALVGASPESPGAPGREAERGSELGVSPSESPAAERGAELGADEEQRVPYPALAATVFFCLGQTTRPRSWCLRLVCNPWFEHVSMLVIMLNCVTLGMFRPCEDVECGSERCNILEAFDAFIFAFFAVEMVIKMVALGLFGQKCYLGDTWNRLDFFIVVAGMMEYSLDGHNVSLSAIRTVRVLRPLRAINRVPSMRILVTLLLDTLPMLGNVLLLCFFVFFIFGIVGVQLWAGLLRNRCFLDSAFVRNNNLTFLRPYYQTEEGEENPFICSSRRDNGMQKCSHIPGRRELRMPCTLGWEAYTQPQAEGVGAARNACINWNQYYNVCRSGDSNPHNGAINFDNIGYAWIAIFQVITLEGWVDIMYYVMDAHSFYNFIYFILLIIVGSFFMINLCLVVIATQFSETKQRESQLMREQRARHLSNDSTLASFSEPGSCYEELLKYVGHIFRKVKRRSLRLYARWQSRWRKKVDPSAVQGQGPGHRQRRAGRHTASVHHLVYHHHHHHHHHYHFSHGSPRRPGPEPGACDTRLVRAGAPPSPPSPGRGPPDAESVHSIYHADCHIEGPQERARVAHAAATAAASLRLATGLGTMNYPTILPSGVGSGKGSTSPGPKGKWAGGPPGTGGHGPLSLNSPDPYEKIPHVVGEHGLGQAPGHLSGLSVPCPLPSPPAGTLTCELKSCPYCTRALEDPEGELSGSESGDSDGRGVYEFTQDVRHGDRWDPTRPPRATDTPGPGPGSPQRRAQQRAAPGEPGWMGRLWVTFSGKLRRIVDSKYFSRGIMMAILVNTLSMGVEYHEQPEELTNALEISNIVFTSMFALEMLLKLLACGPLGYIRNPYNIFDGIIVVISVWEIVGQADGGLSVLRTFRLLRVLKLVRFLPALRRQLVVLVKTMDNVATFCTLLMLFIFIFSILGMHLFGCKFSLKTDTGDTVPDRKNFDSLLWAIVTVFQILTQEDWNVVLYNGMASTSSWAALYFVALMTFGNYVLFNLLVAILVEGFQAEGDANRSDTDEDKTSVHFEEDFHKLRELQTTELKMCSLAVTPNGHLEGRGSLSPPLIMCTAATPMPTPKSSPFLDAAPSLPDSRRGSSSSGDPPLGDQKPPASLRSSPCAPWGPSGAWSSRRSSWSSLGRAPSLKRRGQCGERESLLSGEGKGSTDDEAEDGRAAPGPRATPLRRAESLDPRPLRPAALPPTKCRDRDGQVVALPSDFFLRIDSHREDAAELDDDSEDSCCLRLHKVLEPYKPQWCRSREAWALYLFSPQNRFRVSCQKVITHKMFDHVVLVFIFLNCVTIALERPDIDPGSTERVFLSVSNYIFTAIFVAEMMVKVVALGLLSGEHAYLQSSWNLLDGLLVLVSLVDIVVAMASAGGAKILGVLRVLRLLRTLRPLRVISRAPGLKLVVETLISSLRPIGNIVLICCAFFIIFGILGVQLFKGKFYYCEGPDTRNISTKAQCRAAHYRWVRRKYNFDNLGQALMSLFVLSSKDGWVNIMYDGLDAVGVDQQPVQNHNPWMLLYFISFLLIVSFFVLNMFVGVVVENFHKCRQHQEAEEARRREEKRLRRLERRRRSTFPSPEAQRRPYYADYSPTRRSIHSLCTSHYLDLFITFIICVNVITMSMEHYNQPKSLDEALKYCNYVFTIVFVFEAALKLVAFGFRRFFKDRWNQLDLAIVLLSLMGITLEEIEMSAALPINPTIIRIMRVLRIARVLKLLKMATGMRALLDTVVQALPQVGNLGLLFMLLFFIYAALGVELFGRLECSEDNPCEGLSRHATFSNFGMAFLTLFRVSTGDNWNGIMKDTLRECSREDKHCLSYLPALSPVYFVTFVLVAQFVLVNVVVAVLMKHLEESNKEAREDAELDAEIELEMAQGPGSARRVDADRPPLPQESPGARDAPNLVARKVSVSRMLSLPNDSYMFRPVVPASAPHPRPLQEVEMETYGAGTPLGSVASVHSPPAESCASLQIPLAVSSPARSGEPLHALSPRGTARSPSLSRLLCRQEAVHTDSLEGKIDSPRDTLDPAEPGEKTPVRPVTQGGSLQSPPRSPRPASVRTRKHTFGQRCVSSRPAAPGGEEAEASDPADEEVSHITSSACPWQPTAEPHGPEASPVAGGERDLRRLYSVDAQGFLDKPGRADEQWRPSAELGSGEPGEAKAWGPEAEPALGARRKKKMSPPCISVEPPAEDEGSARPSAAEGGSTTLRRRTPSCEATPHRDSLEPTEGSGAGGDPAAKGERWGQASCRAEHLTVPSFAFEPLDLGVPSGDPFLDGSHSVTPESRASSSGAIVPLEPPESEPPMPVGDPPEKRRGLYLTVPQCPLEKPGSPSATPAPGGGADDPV

## O=S(=O)(c1ccc(N2CCC(c3ccc(Cl)cc3)=N2)cc1)N(CCO)CCO
[1]
  EC50: 3.65 µM (active)
[2]
  EC50: 3.12 µM (active)
[3]
  IC50: 0.434 µM (active)
[4]
  AC50: 13 µM (active)
[5]
  EC50: 1.95 µM (active)
[6]
  IC50: 0.469 µM (active)

## Cc1cc(C(=O)NCCCN2CCCC2=O)cs1
[7]
  IC50: > 79.4 µM (inactive)
[8]
  IC50: > 79.4 µM (inactive)
[9]
  IC50: > 79.4 µM (inactive)

## CC(C)Cc1nnc(NC(=O)COc2ccc(Cl)cc2Cl)o1
[10]
  EC50: 1.8 µM (active)

## Cc1cc(O)c2c(c1O)C(=O)[C@]13C(=C2O)C(=O)[C@@H]2[C@@H](O)[C@H]1[C@@H]1[C@H](O)[C@H]3C(=O)C3=C(O)c4c(O)cc(C)c(O)c4C(=O)[C@]312
[11]
  IC50: > 80 µM (inactive)
[12]
  EC50: 43.1 µM (active)
[13]
  IC50: 19.5 µM (active)
[14]
  EC50: 51.2 µM (active)
[15]
  EC50: 63.3 µM (active)
